Data set [1] has as its system RAW264.7 cells. Briefly: CCK-8 cell viability (cytotoxicity) assay. The data set is classed as cell-based, Mouse. The following applies: RAW264.7 cells, CCK-8, 24 h incubation, means of three independent experiments. The protocol:
CCK-8 Cell Proliferation was used to confirm the non-cytotoxic dose of those derivatives in RAW264.7 cells. However, IC50 values of those compounds show visible difference in vitro (Table 1). Considering the safety of compound 6 in RAW264.7 cells, a follow-up experiment was carried out at the concentration of 2 μM.
The toxicity of those compounds was determined by the CCK-8 assay. RAW264.7 cells were seeded in a 96-well plate at a density of 2 × 10^5/mL and a volume of 100 μL/well. After incubation for 12 h at 37 °C, the cells were then incubated with compounds at concentrations of 1.25, 2.5, 5, 10, 20, 40 and 80 μM for 24 h, followed by the addition of 10 μL CCK-8 solution to each well, and the plates were further incubated for 2 h at 37 °C. The absorbance at a wavelength of 450 nm was measured using a microplate reader (Bio-Rad Laboratories, Inc., Hercules, CA, USA).

Data set [2] concerns LPS-induced expression of IL-1β, IL-6 and iNOS in RAW264.7 cells. As to the kind of experiment: qRT-PCR of pro-inflammatory cytokine gene expression after LPS stimulation. The data set is classed as cell-based, Mouse. To be noted: RAW264.7 cells pre-treated 2 h, LPS 1 μg/mL 6 h, RT-PCR, 2 μM. The text has this: Inflammatory factors, including TNF-α, IL-1β, and IL-6, are involved in and accelerate inflammatory responses during inflammatory progression. In addition, iNOS (Nitric oxide synthase)-derived monocytes contribute to macrophage recruitment in the lung, and pulmonary-derived iNOS is detrimental during acute lung injury. Moreover, observations indicate that inhibiting iNOS can reduce inflammation in the early stages of the bleomycin model of acute lung injury. Therefore, the effective suppression of inflammation is considered an effective marker for the treatment of inflammation. To establish the efficacy of those compounds suppressing inflammatory procession, we tested pro-inflammatory cytokines that are released from the RAW264.7 cells upon LPS stimulation.
Total RNA was isolated using TRIzol reagent (Takara, Ōtsu-shi, Japan) and then transcribed into cDNA using a transcriptor cDNA synthesis kit (TransGen Biotech, Beijing, China) according to the manufacturer’s instructions. Quantitative real-time PCR was performed with TransStart® Green qPCR SuperMix (TransGen Biotech, China). The conditions for the real-time PCR reaction were as follows: 94 °C, 30 s; 94 °C, 5 s; 60 °C, 30 s; 40 cycles. The primers for this research are listed in Supplementary Material Table S1.
Figure 2 Anti-inflammation of 1–6 in RAW264.7 Cells. Expression of proinflammatory cytokines in RAW264.7 cells use RT-PCR. Cells (1 × 10^6 cells/well) were seeded into 6-well plates and then pro-treated with 1–6 for 2 h. Cells were then challenged with LPS (1 μg/mL) or medium alone for 6 h and Total RNA was extracted from cells with Trizol reagent. TNF-α: tumor necrosis factor-α; IL-1β:Interleukin-1β; L-6: Interleukin-6. Data were analyzed by One-Way ANOVA. *: p < 0.05; **: p < 0.01. ns: no significance.
In general terms: Real-time PCR tracks product formation cycle by cycle.

The nature of data set [3]: Aqueous solubility measurement. The data set is classed as physicochemical. To be noted: for solubility: thermodynamic from solid, deionized water, pH = 7.0, at least in duplicate, read-out: Aqueous Solubility IC50. The protocol:
PTL, MCL and compounds 1–6 (0.1, 1, 10 mg) were dissolved in deionized water (pH = 7.0) until the solution was clear. The assays were measured at least in duplicate.

≈ marks a conversion by molar mass, not a printed value. Entries after “also recorded” stand apart in the source; their conditions may differ. Some results are limits rather than exact numbers.

Eight compounds from paper PMC10933920, “Synthesis and Anti-Inflammatory Activity of Ferulic Acid-Sesquiterpene Lactone Hybrids” (Molecules, 2024) can be followed below.

One may read the IC50 as the concentration at which inhibition is half-maximal. A lower IC50 goes with inhibition by little substance. By solubility is commonly meant how much of the substance goes into solution per volume. `C=C1C(=O)O[C@@H]2C3C(=C(C)CC[C@@H]12)CC[C@@]3(C)OC(=O)/C=C/c1ccc(O)c(OC)c1` (stereo partly drawn) [Compound 1, (3aS,9R,9bS)-6,9-dimethyl-3-methylene-2-oxo-2,3,3a,4,5,7,8,9,9a,9b-decahydroazuleno[4,5-b]furan-9-yl (E)-3-(4-hydroxy-3-methoxyphenyl)acrylate] displayed an IC50 in data set [1] (Mus musculus, RAW264.7, 24 h) of 6.14 ± 0.09 µM. The “gene expression of pro-inflammatory cytokines (IL-1β, IL-6, iNOS)” value (“gene expression” for short) in data set [2] is “reduce the gene expression levels of IL-1β, IL-6 and iNOS significantly; also recorded: comparable activities”. Further, in data set [3], the solubility is under 10 µg/mL.
As for `COc1cc(/C=C/C(=O)O[C@]2(C)CCC3=C(C)CC[C@@H]4[C@H](OC(=O)[C@H]4CN(C)C)[C@H]32)ccc1O` [Compound 2, (3R,3aS,9R,9aS,9bS)-3-((dimethylamino)methyl)-6,9-dimethyl-2-oxo-2,3,3a,4,5,7,8,9,9a,9b-decahydroazuleno[4,5-b]furan-9-yl (E)-3-(4-hydroxy-3-methoxyphenyl)acrylate], in data set [1], the midpoint of inhibition, the IC50, lay at 19.6 ± 0.21 µM. Besides, the “gene expression” value in data set [2] is recorded as “decreased activity compared with compound 1”. For the same compound, in data set [3], the solubility is under 10 µg/mL.
One may read the melting point as the temperature of the solid-liquid transition. As to `C=C1C(=O)OC2C1CCC(COC(=O)C=Cc1ccc(O)c(OC)c1)=CCCC1(C)OC21` [Compound 3, ((1aR,7aS,10aS,10bS,E)-1a-methyl-8-methylene-9-oxo-1a,2,3,6,7,7a,8,9,10a,10b-decahydrooxireno[2′,3′:9,10]cyclodeca[1,2-b]furan-5-yl)methyl (E)-3-(4-hydroxy-3-methoxyphenyl)acrylate], the melting point lay in the range of 96 to 98 °C. In data set [1] (Mus musculus, RAW264.7, 24 h), this compound yielded an IC50 of 3.04 ± 0.08 µM. Also, the “gene expression” value in data set [2] is “reduce the gene expression levels of IL-1β, IL-6 and iNOS significantly; also recorded: comparable activities”. Further, in data set [3], the solubility was under 10 µg/mL.
For `COc1cc(C=CC(=O)NCC2=CCCC3(C)OC3C3OC(=O)C(CN(C)C)C3CC2)ccc1O` [Compound 4, (E)-N-(((1aR,7aS,8R,10aS,10bS,E)-8-((dimethylamino)methyl)-1a-methyl-9-oxo-1a,2,3,6,7,7a,8,9,10a,10b-decahydrooxireno[2′,3′:9,10]cyclodeca[1,2-b]furan-5-yl)methyl)-3-(4-hydroxy-3-methoxyphenyl)acrylamide], the melting point is 132 to 134 °C. Further, the IC50 in data set [1] (Mus musculus, RAW264.7, 24 h) came out at 38.4 ± 1.14 µM. Also, in data set [2], the “gene expression” value was “neither the amide derivative of FA-PTL hybrid 4 or 5 (the prodrug of 2 containing citric acid) showed anti-inflammation activities”. The solubility in data set [3] is under 10 µg/mL.
`COc1cc(/C=C/C(=O)O[C@]2(C)CCC3=C(C)CC[C@@H]4[C@H](OC(=O)[C@H]4CN(C)C)[C@H]32)ccc1O.O=C(O)CC(O)(CC(=O)O)C(=O)O` [Compound 5, (3R,3aS,9R,9aS,9bS)-3-((dimethylamino)methyl)-6,9-dimethyl-2-oxo-2,3,3a,4,5,7,8,9,9a,9b-decahydroazuleno[4,5-b]furan-9-yl (E)-3-(4-hydroxy-3-methoxyphenyl)acrylate 2-hydroxypropane-1,2,3-tricarboxylate] came in with an IC50 in data set [1] (Mus musculus, RAW264.7, 24 h) of 28.8 ± 0.21 µM. Also, the “gene expression” value in data set [2] is given as “neither the amide derivative of FA-PTL hybrid 4 or 5 (the prodrug of 2 containing citric acid) showed anti-inflammation activities”. In addition, in data set [3] (pH 7.0), the “water solubility (in words)” value is listed as “significantly improved water solubility”. Further, the solubility in data set [3] turned out to be 2500 µg/mL.
Turning to `COc1cc(/C=C/C(=O)O)ccc1O` [FA, Ferulic acid], the IC50 in data set [1] (Mus musculus, RAW264.7, 24 h) is over 100 µM.
In data set [1] (Mus musculus, RAW264.7, 24 h), `C=C1C(=O)O[C@H]2[C@H]1CCC(C)=C1CC[C@@](C)(O)[C@@H]12` [MCL, micheliolide, reference compound] displayed a half-inhibitory concentration (IC50) of 9.03 ± 0.16 µM. For the same compound, the solubility in data set [3] was 50 µg/mL (≈ 201 µM).
The compound `C=C1C(=O)O[C@H]2[C@H]1CC/C(C)=C/CC[C@@]1(C)O[C@@H]21` [PTL, Parthenolide, reference compound] returned an IC50 in data set [1] (Mus musculus, RAW264.7, 24 h) of 5.35 ± 0.06 µM. For the same compound, the solubility in data set [3] was 50 µg/mL (≈ 201 µM).
